Here are results for two compounds from PMC3495945, “Org 214007-0: A Novel Non-Steroidal Selective Glucocorticoid Receptor Modulator with Full Anti-Inflammatory Properties and Improved Therapeutic Index” (PLoS ONE, 2012).

Series [1] deals with T1, His-GR-LBD (F602S mutated) (Homo sapiens, UniProt P04150, F602S).
T1 construct: E. coli produced His-GR-LBD (F602S mutated) at 10 nM; made in house; host or cells: E. coli
T1 sequence (P04150 524-758 F602S limits assumed): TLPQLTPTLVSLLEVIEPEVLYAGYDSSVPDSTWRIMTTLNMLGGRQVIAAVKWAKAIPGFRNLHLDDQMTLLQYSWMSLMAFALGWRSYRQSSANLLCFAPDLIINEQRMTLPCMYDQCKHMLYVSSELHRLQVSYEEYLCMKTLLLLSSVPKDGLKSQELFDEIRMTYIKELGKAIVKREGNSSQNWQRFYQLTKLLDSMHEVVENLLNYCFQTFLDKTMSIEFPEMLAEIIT
In words: Co-factor-peptide (TIF2-3) recruitment assay. In kind it is biochemical. The settings on record: for Emax: read-out: percentage maximal efficacy (%CV), recruitment of TIF2-3 peptide. On the procedure:
Hereafter, peptide, representing Transcriptional Intermediary Factor 2 – LXXLL motif 3 (TIF2-3) at 100 nM (final concentration), streptavidin-APC (8 nM, final concentration) and anti-His-Eu (1.25 nM final concentration) were added to a total volume of 50 μL/well and incubation at 4°C was continued for another 20 hours. Fluorescence was measured using Tecan Infinite M1000 and data were analysed by GraphPad Prism.

In series [2] the test system is hepatic glucose metabolism. In words: Mouse MIDA model for liver glucose metabolism. It is filed as in vivo. As to conditions: prednisolone 10 mg/kg, Org 214007-0 1.5 mg/kg; for glucokinase flux rate / gluconeogenic flux (de novo synthesis of glucose-6-phosphate) / glucose-6-phosphatase flux / glycogen phosphorylase flux / glycogen synthase flux rate / liver glucose balance / liver glycogen balance / metabolic clearance rate of blood glucose: 7 days p.o.; for fasting blood glucose levels vs vehicle: oral daily 7 days. Here is the method: Eighteen hours after the last oral treatment and 9 hours after start of starvation, blood samples were taken from the tail vein and directly used for glucose measurements using “One touch Ultra” glucose meter from Lifescan EuroFlash (Lifescan Benelux Beerse, Belgium). The mouse MIDA study was performed as described previously by van Dijk et al., [52]. […] On the third day, mice were cannulated in the right jugular vein. After 7 days of treatment, mice were placed in small Plexiglas cages, which allowed collection of blood samples frequently in freely moving mice. Twenty four hours after the final dose and after a 9 hours starving period, a tail vein blood sample was used for a glucose measurement after which mice were shortly anesthetized to attach the infusion lines before the experiment. Filter paper was placed under the wired floor cages to collect urine samples and replaced hourly. Mice received an infusion of a sterilized aqueous solution containing [U-^13C]glucose (13 μmol/ml), [2-^13C]glycerol (160 μmol/ml), [1-^2H]galactose (33 μmol/ml) and paracetamol (1 mg/ml) at a rate of 0.54 ml/hr for 6 hours. During the experiment blood glucose was measured and blood spots for GCMS measurements were collected from tail tips just before the start of the infusion and at hourly intervals. Blood spots and urine filter papers were air-dried and stored at room temperature until analysis. Glucose and paracetamol-glucuronic acid (Par-GLcUa) were extracted from blood spot and urine filter papers, respectively, derivatised, and measured by GC-MS, essentially as described previously, [52]. The fractional isotopomer distribution according to GC-MS was corrected for fractional distribution due to the natural abundance of ^13C by multiple linear regression to obtain the excess mole fraction of mass isotopomers M0-M6 due to incorporation of infused labeled carbohydrates. From isotope dilution and infusion rates, the flux rates of the following metabolic pathways could be calculated: 1) de novo synthesis of G6P, 2) glucokinase, 3) glucose-6-phosphatase, 4) glycogenolysis, and 5) glycogen synthesis. The method of calculation was performed as described before, [52], [53].

The test system of another series is HepG2 cells. In words: Gene expression profiling (microarray) in HepG2 cells. In kind it is cell-based, human. The settings on record: HepG2, 1 μM compound, 6 hours; prednisolone set at 100%. Here is the method:
HepG2-8/97-WS.5 cells, deprived from serum for 18 hours, were stimulated with glucocorticoid and 0.5 mM cAMP for 6 hours. RNA was isolated and used for double stranded cDNA synthesis using the One-Cycle Target Labeling Kit (Affymetrix Santa Clara, CA). This cDNA was used as a template for the preparation of biotin-labeled cRNA using the GeneChip IVT Labeling Kit (Affymetrix Santa Clara, CA). Biotin-labeled cRNA was fragmented and hybridized at 45°C for 16–17 hours to the Human Genome U133A 2.0 Array or the Human Genome U133 Plus 2.0 Array (Affymetrix, Santa Clara, CA). (for more detailed information see Supportive Information) (SI text). Arrays were stained with phycoerythrin-streptavidin conjugate (Molecular Probes, Eugene, OR), and the signals were amplified by staining the array with biotin-labeled anti-streptavidin antibody (Vector Laboratories, Burlingame, CA) followed by phycoerythrin-streptavidin. […] Data was saved as raw image file and quantified using GCOS (Affymetrix). […]
HepG2-8/97-WS.5 cells were seeded at 2.10^5 cells/mL in a 24-well plate in DMEM/F12 medium (Gibco), supplemented with 80 U/mL penicillin, 80 μg/mL streptomycin and 5% Fetal Bovine Serum (Invitrogen). […] RNA quantity and quality were determined using the Agilent […] bioanalyzer. […] Data was saved as raw image file and quantified using GCOS (Affymetrix).

On to `C[C@]12C=CC(=O)C=C1CC[C@@H]1[C@@H]2[C@@H](O)C[C@@]2(C)[C@H]1CC[C@]2(O)C(=O)CO` [prednisolone, reference compound], for which the Emax in series [1] came to 100%. For the same compound, in series [2], the glucokinase flux rate entry is reported as “significantly decreased”, the “gluconeogenic flux (de novo synthesis of glucose-6-phosphate)” value was “no change”, the glucose-6-phosphatase flux entry is “Neither the glucose-6-phosphatase flux (A) nor the glycogen phosphorylase flux (B) were affected” and the glycogen phosphorylase flux entry was “Neither the glucose-6-phosphatase flux (A) nor the glycogen phosphorylase flux (B) were affected”. In addition, in series [2], the “glycogen synthase flux rate” value is reported as “significantly decreased”; the liver glucose balance entry is on record as “significantly changed”; the liver glycogen balance entry is given as “significantly changed”; the “metabolic clearance rate of blood glucose” value is “Neither Org 214007-0 nor prednisolone, at equi-efficacious dosages, effects”. Moreover, in series [2], the “fasting blood glucose levels vs vehicle” value is reported as “significantly elevated”. Besides, the “Max eff., induction of gene expression, micro-array” value in the series with HepG2 cells turned out to be 100%.
As for `Cc1nnsc1C(=O)N[C@H]1CCN2c3ccc(C#N)cc3[C@@H](C)c3ccccc3[C@@H]2C1` [Org 214007-0], in series [1] (0.1 μM peptide, read-out: EC50 (%CV), recruitment of TIF2-3 peptide), the concentration giving a half-maximal response (EC50) came out at 10 nM. Besides, the Emax in series [1] was 67%. In series [2], the glucokinase flux rate result is reported as “no significant effects”; the “gluconeogenic flux (de novo synthesis of glucose-6-phosphate)” value is on record as “Neither Org 214007-0 nor prednisolone, at equi-efficacious dosages, effects”; the glucose-6-phosphatase flux result is recorded as “Neither the glucose-6-phosphatase flux (A) nor the glycogen phosphorylase flux (B) were affected”; the glycogen phosphorylase flux result is “Neither the glucose-6-phosphatase flux (A) nor the glycogen phosphorylase flux (B) were affected”. In series [2], the “glycogen synthase flux rate” value is listed as “no significant effects”; the liver glucose balance result is “not affected”; the liver glycogen balance result is “not effected”; the “metabolic clearance rate of blood glucose” value is on record as “Neither Org 214007-0 nor prednisolone, at equi-efficacious dosages, effects”. The “fasting blood glucose levels vs vehicle” value in series [2] is “did not affect”. For the same compound, the “Max eff., induction of gene expression, micro-array” value in the series on HepG2 cells was determined as 67%.

The term EC50 denotes the concentration at which the effect is half-maximal.
